Data from patent publication US11345695B2, “Substituted nicotinimide inhibitors of BTK and their preparation and use in the treatment of cancer, inflammation and autoimmune disease” (GUANGZHOU INNOCARE PHARMA TECH CO., LTD., priority 2013, dated 2022).

Molecular target: BTK (Homo sapiens (Human), UniProt Q06187)
Test: kinase-tagged phage / affinity bead competition binding screen (qPCR readout)
Settings: BTK versus SRC

BTK, sequence (Q06187 whole entry): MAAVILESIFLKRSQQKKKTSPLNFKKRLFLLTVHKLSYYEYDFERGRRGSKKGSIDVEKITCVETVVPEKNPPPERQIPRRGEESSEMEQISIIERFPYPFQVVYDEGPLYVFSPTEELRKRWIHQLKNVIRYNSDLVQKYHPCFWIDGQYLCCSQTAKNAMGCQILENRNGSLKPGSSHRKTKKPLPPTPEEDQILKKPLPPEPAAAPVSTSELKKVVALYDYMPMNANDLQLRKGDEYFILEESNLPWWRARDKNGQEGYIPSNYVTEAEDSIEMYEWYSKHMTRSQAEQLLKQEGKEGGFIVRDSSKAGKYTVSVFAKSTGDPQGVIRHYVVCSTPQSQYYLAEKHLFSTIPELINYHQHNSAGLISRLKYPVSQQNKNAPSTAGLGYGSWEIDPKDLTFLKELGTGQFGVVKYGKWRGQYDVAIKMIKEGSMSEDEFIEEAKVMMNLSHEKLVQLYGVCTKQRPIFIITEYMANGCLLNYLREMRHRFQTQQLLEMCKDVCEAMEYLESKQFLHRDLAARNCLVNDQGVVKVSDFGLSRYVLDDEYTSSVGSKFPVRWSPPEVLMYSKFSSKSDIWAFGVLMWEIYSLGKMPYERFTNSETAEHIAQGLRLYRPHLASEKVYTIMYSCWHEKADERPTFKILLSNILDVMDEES

## C=CC(=O)N1CCN(c2ccc(C(N)=O)c(-c3ccc(Oc4ccccc4)cc3)n2)CC1 [Example 5, 6-(4-acryloylpiperazin-1-yl)-2-(4-phenoxyphenyl)nicotinamide]
  Fold Difference: >100x
